According to patent US20220372014A1, “NEUROPROTECTIVE COMPOUNDS AND METHODS OF USE THEREOF” (The Johns Hopkins University, priority 2019, published 2022):
“Also recorded” adds a separate entry of the source.

Legend:
PAAN/MIF = target: T1, PAAN/MIF (Homo sapiens, UniProt P14174); assay: In vitro PAAN/MIF nuclease assay (PS30 or RF substrate, PAGE gel, noncleaved substrate DNA); type: biochemical; settings: RF and PS30 substrates
T1 construct: GST (N, cleaved yes); made in house; host or cells: Escherichia coli
T1 sequence (P14174 1-115): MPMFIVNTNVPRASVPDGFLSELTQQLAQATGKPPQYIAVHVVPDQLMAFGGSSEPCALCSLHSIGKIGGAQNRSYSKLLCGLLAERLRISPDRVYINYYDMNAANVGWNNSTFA
Description: Nuclease assay. Purified PAAN/MIF protein (4 μM) was incubated with compounds (10 μM) in the nuclease buffer [10 mM Tris-C1 (pH 7.0) and 10 mM MgCl2] for 20 m on ice. Then samples were added with 1 μM of PAAN/MIF substrate (PS30 or RF) and incubated for 1 h at 37° C. The reaction was terminated with loading buffer containing 10 mM EDTA and separated on 15% TBE-urea polyacrylamide (PAGE) gel or 20% TBE PAGE gel.
Purification of PAAN/MIF recombinant proteins. Human PAAN/MIF (NM_002415) cDNA and its variants were subcloned into pGEX-6β-1 vector (GE Healthcare) and mutants were generated using a QuikChange site-directed mutagenesis kit (Stratagene). The sequences were confirmed by automated DNA sequencing. The protein was expressed and purified from Escherichia coli by glutathione sepharose (GE Healthcare). The GST tag was subsequently proteolytically removed. GST protein was used as a negative control in the nuclease assay and PAAN/MIF proteins purified by FPLC using Superdex 200 10/300GL column (GE Healthcare, Life Sciences) were also used in the nuclease assays.

SH-SY5Y cells = assay: MNNG-induced parthanatic cell death in SH-SY5Y cells (Alamar blue cell viability); type: cell-based; settings: for inhibition of MNNG-induced parthanatic cell death: 50 μM MNNG for 15 min, viability after 24 h; for IC50: Homo sapiens, SH-SY5Y, read-out: IC50, MNNG-induced parthanatic cell death
Description: We developed an assay to screen for PAAN/MIF nuclease inhibitors. Single-stranded PAAN/MIF nuclease DNA substrate (FIG. 10A) was amine modified on the 5′ end and immobilized on a plate. Hybridization with a biotin-labeled complementary oligonucleotide followed by addition of streptavidin conjugated horseradish peroxidase enzyme (HRP) leads to retention of HRP on the surface within each well in the presence of intact PAAN/MIF nuclease DNA substrate, which can be quantitatively detected through colorimetric change at 450 nm using the HRP substrate 3,3′,5,5′-tetramethylbenzidine (TMB). In the presence of WT PAAN/MIF, there is reduced signal, indicative of cleavage of the PAAN/MIF nuclease substrate, while the signal is not attenuated without recombinant PAAN/MIF (FIGS. 1 and 10B). […] Thus, the rapafucin library containing 45,000 macrocyclic compounds in 3,000 pools of 15 compounds was screened using this assay. […] Several pools were identified that inhibit PAAN/MIF nuclease activity from the primary screen (FIG. 4A). […] Nine pools of compounds were identified that both inhibit PAAN/MIF cleavage of the substrate and protect against MNNG-induced parthanatic cell death by greater than 70% (FIG. 10D). […] Next, the 90 individual compounds in the 6 pools were synthesized and further assessed for inhibition of PAAN/MIF nuclease activity and MNNG-induced parthanatic cell death. Among them 12 compounds (compounds 16-18, 26-28, 41, 56, 66, 67, 76, and 77) were identified that block MIF nuclease activity and MNNG-induced parthanatic cell death by greater than 60% (FIG. 10F). Dose dependence (0.1 to 1.0 μM) were assessed for the 12 compounds against MNNG-induced parthanatic cell death (FIG. 11A and Table 2) and inhibition of PAAN MIF nuclease activity against the RF (FIG. 111B) and PS30 substrates (FIG. 11C).
Cell culture, transfection, primary neuronal culture and treatment. SH-SY5Y cells (ATCC) were cultured in DMEM containing 10% fetal bovine serum and penicillin/streptomycin at 37° C. under 5% C02. The cells were transfected using PolyFect reagent (Qiagen). Parthanatos was induced by the treatment of 50 μM MNNG for 15 min in SH-SY5Y cells. ABT-888 or PAAN/MIF inhibitors were pretreated with indicated concentration 1 h before MNNG treatment and cell death were assessed after 24 h. Primary cortical neurons from WT, PAAN/MIF KO, E22Q KI or P1G KI embryos were prepared as previously described See Kam et al. (2018) Science 362:eaat8407. Briefly, the cortex was dissected and cultured at embryonic day 16 in neurobasal media supplemented with B-27, 0.5 mM L-glutamine, penicillin and streptomycin (Invitrogen). Primary neurons were infected with AAV2-control, AAV2-PAAN/MIF WT, AAV2-PAAN/MIF E22Q, AAV2-PAAN/MIF E22A or AAV2-MIF P1G (ViGene Biosciences) at days in vitro (DIV) 4-5. ABT-888 or PAAN/MIF inhibitors were applied to neurons 1 h before α-syn PFF treatment. The neuron growth medium was replaced with fresh medium alone or including inhibitors every 3-4 days. α-syn PFF was added at DIV 7 and further incubated for indicated times followed by the cell death assay or biochemical experiments.
Cell death and viability assessment. Primary cultured cortical neurons were treated with 5 μg/ml of α-syn PFF for 14 days and cell death was determined by staining of all nuclei with 7 μM Hoechst 33342 and dead cell nuclei with 2 μM propidium iodide (PI) (Invitrogen). The numbers of total and dead cells were counted with the Axiovision 4.6 software (Carl Zeiss). Cell viability was determined by fluorescence at an excitation wavelength 570 nm and an emission wavelength 585 nm using Alamar Blue (Invitrogen). […]

[1] = system: HeLa cells or neuronal cells; assay: Cell death assay of Example 3 (MNNG, alamarBlue; protection against parthanatos, Table 4); type: cell-based; settings: 1 μM test compound, MNNG-induced cell death, alamarBlue
In short: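 HeLa or neuronal cells (1×10^4/well) were pretreated 1 h at 37° C with 1 μM compound, exposed to MNNG for 15 min, washed, then re-incubated 18 h with 1 μM compound. Viability was read by alamarBlue fluorescence (ex 560/em 590 nm). Cell death was expressed relative to control wells.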

SMILES | inhibition of PAAN/MIF nuclease activity (PAAN/MIF) | inhibition of MNNG-induced parthanatic cell death (SH-SY5Y cells) | IC50 (SH-SY5Y cells) [nM] | (%) inhibition of cell death ([1]; 1 µM) [%] | (%) inhibition of cell death [1] [%] | protection against MNNG-induced parthanatic cell death in PAAN/MIF mutant cells (SH-SY5Y cells; PAAN/MIF KO SH-SY5Y cells expressing L61A, 60-63A or N72A, 1 μM)
COc1ccc(CC[C@H]2OC(=O)[C@@H]3CCCCN3C(=O)C(=O)C(C)(C)COC(=O)C=CCCN(C)C(=O)[C@@H]3CCCN3C(=O)[C@H](COC(C)(C)C)N(C)C(=O)C(c3ccccc3)NC(=O)[C@H](C)N(C)C(=O)COc3cccc2c3)cc1OC (stereo partly drawn) [compound 56] | prominently blocked; also recorded: inhibited | prominently blocked | 520 | 81.5 | – | –
COc1ccc(CC[C@H]2OC(=O)[C@@H]3CCCCN3C(=O)C(=O)C(C)(C)COC(=O)C=CCCN(C)C(=O)[C@@H]3CCCN3C(=O)[C@H](CO)N(C)C(=O)C(c3ccccc3)NC(=O)[C@H](C)N(C)C(=O)COc3cccc2c3)cc1OC (stereo partly drawn) [compound 97] | has no effect | has no effect | – | – | 41.4 | –
COc1ccc(CC[C@H]2OC(=O)[C@@H]3CCCCN3C(=O)C(=O)C(C)(C)COC(=O)C=CCCN(C)C(=O)[C@@H]3CCCN3C(=O)[C@H](COC(C)(C)C)N(C)C(=O)C(c3ccccc3)NC(=O)CN(C)C(=O)COc3cccc2c3)cc1OC (stereo partly drawn) [compound 41] | prominently blocked | prominently blocked | – | 80.6 | – | –
COc1ccc(CC[C@H]2OC(=O)[C@@H]3CCCCN3C(=O)C(=O)C(C)(C)COC(=O)C=CCCN(C)C(=O)[C@H](C)NC(=O)[C@H](C(C)C)N(C)C(=O)[C@@H](Cc3ccccc3)NC(=O)[C@H](CC(C)C)N(C)C(=O)CCC(=O)Nc3cccc2c3)cc1OC [compound 77] | prominently blocked | prominently blocked | – | – | 77.9 | –
COc1ccc(CC[C@H]2OC(=O)[C@@H]3CCCCN3C(=O)C(=O)C(C)(C)COC(=O)C=CCCN(C)C(=O)CNC(=O)[C@H](C(C)C)N(C)C(=O)[C@@H](Cc3ccccc3)NC(=O)[C@H](CC(C)C)N(C)C(=O)CCC(=O)Nc3cccc2c3)cc1OC [compound 76] | prominently blocked | prominently blocked | – | – | 79.2 | –
COc1ccc(CC[C@H]2OC(=O)[C@@H]3CCCCN3C(=O)C(=O)C(C)(C)COC(=O)C=CCCN(C)C(=O)[C@@H]3CCCN3C(=O)[C@H](COC(C)(C)C)N(C)C(=O)C(c3ccccc3)NC(=O)[C@H](C)N(C)C(=O)COc3cc(F)cc2c3)cc1OC (mixture of isomers) [compound 121] | inhibited | blocked | 280 | – | 90.1 | significantly reduced
